Experimental data from patent publication US20250353835A1, “N-TETRAZOLYL ARYL UREA-BASED DERIVATIVES, PREPARATION METHOD THEREFOR, AND USE THEREOF” (Hangzhou Yirui Pharmaceutical Technology Co., Ltd, priority 2022, published 2025).

Columns and labels:
Format in all cases: in vitro ADME
CYP1A2 = target: T1, CYP1A2 (Homo sapiens, UniProt P05177); assay: CYP450 inhibition in human liver microsomes (substrate method, LC-MS/MS); settings: read-out: CYP inhibition IC50 [μM], 1A2
T1 construct: The substrate method was used to determine the activity of human liver microsomal CYP450 enzyme; from tissue; host or cells: human liver microsomes
T1 sequence (P05177 1-516): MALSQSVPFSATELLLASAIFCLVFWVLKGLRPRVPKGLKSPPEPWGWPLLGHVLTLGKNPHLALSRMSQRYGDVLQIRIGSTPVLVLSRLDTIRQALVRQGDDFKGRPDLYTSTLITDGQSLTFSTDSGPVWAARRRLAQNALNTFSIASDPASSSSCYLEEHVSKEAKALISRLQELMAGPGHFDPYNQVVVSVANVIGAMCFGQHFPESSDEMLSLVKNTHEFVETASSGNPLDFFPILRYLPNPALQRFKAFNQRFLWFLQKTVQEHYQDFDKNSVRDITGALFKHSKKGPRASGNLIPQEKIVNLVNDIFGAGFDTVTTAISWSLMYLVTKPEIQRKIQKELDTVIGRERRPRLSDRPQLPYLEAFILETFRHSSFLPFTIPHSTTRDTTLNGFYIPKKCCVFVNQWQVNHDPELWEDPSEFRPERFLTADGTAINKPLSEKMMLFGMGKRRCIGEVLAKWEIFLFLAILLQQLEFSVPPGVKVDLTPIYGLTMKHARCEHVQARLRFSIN
Method: (§1) In addition, the LC-MS/MS method was used to determine the substrate metabolites of 5 major subtypes of human liver microsomal CYP450 enzymes (including CYP1A2, CYP2D6, CYP2C8, CYP2C9, and CYP3A4). The substrate method was used to determine the activity of human liver microsomal CYP450 enzyme. The established incubation system was verified using known inhibitors to investigate the inhibitory effect of the compound on CYP450 enzyme. For the enzyme induction test, a primary cultured human hepatocyte incubation system was used. 3-methylcholanthrene, phenobarbital, and rifampicin were used as positive control inducers of CYP1A2, CYP2B6, and CYP3A4, and phenacetin, bupropion, and testosterone were used as the substrate for CYP1A2, CYP2B6, and CYP3A4. The CYP450 enzyme activity was calculated by measuring the generation rate of 3 specific substrate metabolites in the incubation solution. Meanwhile, the total RNA was extracted from the human hepatocytes after incubation, and the real-time fluorescence quantitative PCR method was used to determine the mRNA expression level of CYP1A2, […], and CYP3A4. The enzyme activity and mRNA transcription level were used as endpoints to investigate the inductive effect of the compound on human liver P450 isoenzymes CYP1A2, […], and CYP3A4. The liver microsomal metabolism parameters in vitro are shown in Table 2B3 taking Compound 8 as an example.

CYP2D6 = target: T2, CYP2D6 (Homo sapiens, UniProt P10635); assay: as above; settings: read-out: CYP inhibition IC50 [μM], 2D6
T2 construct: The substrate method was used to determine the activity of human liver microsomal CYP450 enzyme; from tissue; host or cells: human liver microsomes
Method: as §1

CYP2C9 = target: T3, CYP2C9 (Homo sapiens, UniProt P11712); assay: as above; settings: read-out: CYP inhibition IC50 [μM], 2C9
T3 construct: The substrate method was used to determine the activity of human liver microsomal CYP450 enzyme; from tissue; host or cells: human liver microsomes
Method: as §1

CYP3A4 = target: T4, CYP3A4 (Homo sapiens, UniProt P08684); assay: as above; settings: read-out: CYP inhibition IC50 [μM], 3A4
T4 construct: from tissue; host or cells: human liver microsomes
Method: as §1

CYP2C8 = target: T5, CYP2C8 (Homo sapiens, UniProt P10632); assay: as above; settings: read-out: CYP inhibition IC50 [μM], 2C8
T5 construct: The substrate method was used to determine the activity of human liver microsomal CYP450 enzyme; from tissue; host or cells: human liver microsomes
T5 sequence (P10632 1-490): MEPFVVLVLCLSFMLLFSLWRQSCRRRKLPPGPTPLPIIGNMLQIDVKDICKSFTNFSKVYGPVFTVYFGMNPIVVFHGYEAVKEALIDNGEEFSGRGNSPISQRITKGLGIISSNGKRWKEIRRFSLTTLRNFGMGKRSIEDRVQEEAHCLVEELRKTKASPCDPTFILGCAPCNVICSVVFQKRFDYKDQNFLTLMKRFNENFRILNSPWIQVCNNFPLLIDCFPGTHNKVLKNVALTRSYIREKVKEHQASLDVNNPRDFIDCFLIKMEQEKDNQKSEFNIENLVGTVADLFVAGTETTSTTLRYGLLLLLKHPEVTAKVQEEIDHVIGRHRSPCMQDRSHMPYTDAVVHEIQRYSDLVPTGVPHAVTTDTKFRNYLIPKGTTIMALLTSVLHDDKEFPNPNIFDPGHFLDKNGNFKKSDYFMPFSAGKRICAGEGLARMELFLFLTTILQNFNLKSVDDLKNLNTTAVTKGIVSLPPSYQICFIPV
Method: as §1

[1] = Liver microsomal metabolism in vitro, human LM clearance; settings: human liver microsomes in vitro
Method: as §1

T3 sequence (P11712 whole entry): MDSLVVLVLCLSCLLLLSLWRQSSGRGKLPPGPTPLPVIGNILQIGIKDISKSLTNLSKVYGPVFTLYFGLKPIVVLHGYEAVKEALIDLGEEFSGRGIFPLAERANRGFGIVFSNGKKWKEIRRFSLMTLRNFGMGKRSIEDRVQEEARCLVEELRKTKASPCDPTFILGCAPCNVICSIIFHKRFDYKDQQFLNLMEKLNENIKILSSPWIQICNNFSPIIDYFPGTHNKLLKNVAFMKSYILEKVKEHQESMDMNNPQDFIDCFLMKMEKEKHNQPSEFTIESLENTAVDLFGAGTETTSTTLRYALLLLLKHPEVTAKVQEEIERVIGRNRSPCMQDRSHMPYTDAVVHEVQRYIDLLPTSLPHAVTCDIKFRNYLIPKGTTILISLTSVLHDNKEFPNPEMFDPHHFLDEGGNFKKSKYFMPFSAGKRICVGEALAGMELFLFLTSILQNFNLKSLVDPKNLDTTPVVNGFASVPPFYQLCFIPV
T2 sequence (P10635 whole entry): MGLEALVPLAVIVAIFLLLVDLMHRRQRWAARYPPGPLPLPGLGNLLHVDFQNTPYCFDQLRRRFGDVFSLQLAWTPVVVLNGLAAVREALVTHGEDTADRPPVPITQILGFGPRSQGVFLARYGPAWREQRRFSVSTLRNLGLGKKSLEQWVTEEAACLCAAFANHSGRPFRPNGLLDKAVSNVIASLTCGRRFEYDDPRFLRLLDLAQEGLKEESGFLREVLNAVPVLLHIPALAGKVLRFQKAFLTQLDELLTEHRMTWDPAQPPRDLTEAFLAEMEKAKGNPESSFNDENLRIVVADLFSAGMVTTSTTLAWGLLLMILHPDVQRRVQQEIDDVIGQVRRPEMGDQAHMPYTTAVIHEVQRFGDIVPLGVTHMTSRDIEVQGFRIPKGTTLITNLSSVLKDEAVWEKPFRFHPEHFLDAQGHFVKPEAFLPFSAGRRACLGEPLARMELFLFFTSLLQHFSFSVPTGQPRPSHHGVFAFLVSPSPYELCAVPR
T4 sequence (P08684 whole entry): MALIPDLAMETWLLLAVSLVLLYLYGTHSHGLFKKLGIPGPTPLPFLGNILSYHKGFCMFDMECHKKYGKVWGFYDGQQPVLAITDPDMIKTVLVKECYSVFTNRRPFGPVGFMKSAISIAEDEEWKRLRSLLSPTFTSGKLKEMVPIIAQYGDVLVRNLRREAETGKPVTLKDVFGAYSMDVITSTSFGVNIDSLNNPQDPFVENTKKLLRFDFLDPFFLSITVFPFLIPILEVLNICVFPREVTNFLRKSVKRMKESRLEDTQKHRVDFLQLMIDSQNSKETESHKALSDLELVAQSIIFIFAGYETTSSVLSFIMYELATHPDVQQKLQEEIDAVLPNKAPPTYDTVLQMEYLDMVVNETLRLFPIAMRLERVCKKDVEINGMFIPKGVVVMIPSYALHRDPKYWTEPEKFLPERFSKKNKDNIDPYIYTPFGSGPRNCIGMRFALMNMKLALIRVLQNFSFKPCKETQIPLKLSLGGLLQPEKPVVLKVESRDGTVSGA

- IC50 (CYP1A2): 50 µM
- IC50 (CYP2D6): 50 µM
- IC50 (CYP2C9): 50 µM
- IC50 (CYP3A4): 50 µM
- IC50 (CYP2C8): 50 µM
- Human LM clearance [1]: 8.5 mL/min/kg
SMILES: CCOc1ccc(-c2c(F)cc(NC(=O)N3CCC(C(C)(C)C)CC3)cc2-c2nn[nH]n2)cn1 [Compound 8, 4-(tert-butyl)-N-(4-(6-ethoxypyrid-3-yl)-3-fluoro-5-(2H-tetrazol-5-yl)phenyl)piperidine-1-carboxamide]
